For this assay, the system named is MV-4-11 cells. Briefly: Cell Viability Assay in MV-4-11 Cells. Conditions: Homo sapiens, MV4-11, 72 h, MV-4-11 cells, 72 h, Cell-Titer Glo; read-out: IC50. The assay is classed as cell-based. Summed up:
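Luminescent ATP read-out (CellTiter-Glo) after 72 h compound treatment of MV-4-11 leukaemia cells (7,000 per well, IMDM plus 10% FBS). Values expressed relative to DMSO control and derived by four-parameter non-linear regression.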
In the case of `Cc1cc(-c2cc3c(N(C(=O)c4ccc(-n5nnc6cccnc65)cc4F)[C@@H]4CCCNC4)nccc3s2)cc(C)c1C(N)=O` [Example 606, (R)-4-(3H-[1,2,3]triazolo[4,5-b]pyridin-3-yl)-N-(2-(4-carbamoyl-3,5-dimethylphenyl)thieno[3,2-c]pyridin-4-yl)-2-fluoro-N-(piperidin-3-yl)benzamide], the IC50 (usually the concentration at which inhibition is half-maximal) worked out at 400 nM. Consider `Cc1cc(-c2cc3c(N(C(=O)c4ccc(-c5cn(C)nn5)cc4F)[C@@H]4CCCNC4)nccc3s2)ccc1C(N)=O` [Example 607, (R)—N-(2-(4-carbamoyl-3-methylphenyl)thieno[3,2-c]pyridin-4-yl)-2-fluoro-4-(1-methyl-1H-1,2,3-triazol-4-yl)-N-(piperidin-3-yl)benzamide], for which the half-maximal inhibitory concentration (IC50) was determined as 800 nM. The figure for `Cn1cc(-c2ccc(C(=O)N(c3nccc4cc(Cc5ccccc5)ccc34)[C@@H]3CCCNC3)c(F)c2)nn1` [Example 609, (R)—N-(6-benzylisoquinolin-1-yl)-2-fluoro-4-(1-methyl-1H-1,2,3-triazol-4-yl)-N-(piperidin-3-yl)benzamide] is 400 nM; for `CC(=O)c1ccc2c(N(C(=O)c3ccc(-c4cn(C)nn4)cc3F)[C@@H]3CCCNC3)nccc2c1` [Example 610, (R)—N-(6-acetylisoquinolin-1-yl)-2-fluoro-4-(1-methyl-1H-1,2,3-triazol-4-yl)-N-(piperidin-3-yl)benzamide] it is 86 nM; for `Cc1cc(-c2cc3c(N(C(=O)c4ccc(-c5cn(C)nn5)cc4F)[C@@H]4CCCNC4)nccc3s2)cc(C)c1C(N)=O` [Example 611, (R)—N-(2-(4-carbamoyl-3,5-dimethylphenyl)thieno[3,2-c]pyridin-4-yl)-2-fluoro-4-(1-methyl-1H-1,2,3-triazol-4-yl)-N-(piperidin-3-yl)benzamide] it is 2300 nM. With `Cc1c(-c2ccc(C(=O)N(c3nccc4sc(-c5ccc(C(N)=O)cc5)cc34)[C@@H]3CCCNC3)c(F)c2)cnn1C` [Example 612, (R)—N-(2-(4-carbamoylphenyl)thieno[3,2-c]pyridin-4-yl)-4-(1,5-dimethyl-1H-pyrazol-4-yl)-2-fluoro-N-(piperidin-3-yl)benzamide], the IC50 amounted to 280 nM. For `Cn1cc(-c2ccc(C(=O)N(c3nccc4sc(-c5ccc(C(N)C(F)(F)F)cc5)cc34)[C@@H]3CCCNC3)c(F)c2)nn1` (stereo partly drawn) [Example 613, N-(2-(4-(1-amino-2,2,2-trifluoroethyl)phenyl)thieno[3,2-c]pyridin-4-yl)-2-fluoro-4-(1-methyl-1H-1,2,3-triazol-4-yl)-N—((R)-piperidin-3-yl)benzamide], the IC50 was 460 nM. As to `Cc1cc(F)cc2ccnc(N(C(=O)c3ccc(-c4cn(C)nn4)cc3)[C@@H]3CCCNC3)c12` [Example 614, (R)—N-(6-fluoro-8-methylisoquinolin-1-yl)-4-(1-methyl-1H-1,2,3-triazol-4-yl)-N-(piperidin-3-yl)benzamide], the IC50 is 16 nM.

As for `Cc1cc(Cl)cc2ccnc(N(C(=O)c3ccc(-n4nnc5cccnc54)cc3F)[C@@H]3CCCNC3)c12` [Example 615, N-(6-chloro-8-methyl-1-isoquinolyl)-2-fluoro-N-[(3R)-3-piperidyl]-4-(triazolo[4,5-b]pyridin-3-yl)benzamide], the IC50 turned out to be 17 nM. The figure for `CCc1csc2ccnc(N(C(=O)c3ccc(-c4nnc(C)s4)cc3F)[C@@H]3CCCNC3)c12` [Example 617, (R)—N-(3-ethylthieno[3,2-c]pyridin-4-yl)-2-fluoro-4-(5-methyl-1,3,4-thiadiazol-2-yl)-N-(piperidin-3-yl)benzamide] is 540 nM.

`Cc1cc(Cl)cc2ccnc(N(C(=O)c3ccc(-c4nnn(C)c4CO)cc3F)[C@@H]3CCCNC3)c12` [Example 618, (R)—N-(6-chloro-8-methylisoquinolin-1-yl)-2-fluoro-4-(5-(hydroxymethyl)-1-methyl-1H-1,2,3-triazol-4-yl)-N-(piperidin-3-yl)benzamide]: the IC50 came out at 53 nM. Then `COc1cc(C)c2c(N(C(=O)c3ccc(-c4cn(C)nn4)cc3F)[C@@H]3CCCNC3)nccc2c1` [Example 619, (R)-2-fluoro-N-(6-methoxy-8-methylisoquinolin-1-yl)-4-(1-methyl-1H-1,2,3-triazol-4-yl)-N-(piperidin-3-yl)benzamide], with 38 nM.

Regarding `Cc1cc(F)cc2ccnc(N(C(=O)c3ccc(-c4cn(C)nn4)cc3F)[C@H]3CCCNC3)c12` [Example 620, 2-fluoro-N-(6-fluoro-8-methyl-1-isoquinolyl)-4-(1-methyltriazol-4-yl)-N-[(3S)-3-piperidyl]benzamide], the half-inhibitory concentration (IC50) was over 5900 nM. Regarding `Cc1cc(Cl)cc2ccnc(N(C(=O)c3ccc(-c4cn(C)nn4)cc3F)[C@H]3CCCNC3)c12` [Example 621, (S)—N-(6-chloro-8-methylisoquinolin-1-yl)-2-fluoro-4-(1-methyl-1H-1,2,3-triazol-4-yl)-N-(piperidin-3-yl)benzamide], the IC50 was 4100 nM. Then `Cc1nnc(-c2ccc(C(=O)N(c3nccc4cccc(C)c34)[C@@H]3CCCNC3)cn2)s1` [Example 622, (R)-6-(5-methyl-1,3,4-thiadiazol-2-yl)-N-(8-methylisoquinolin-1-yl)-N-(piperidin-3-yl)nicotinamide], with 170 nM.

Turning to `Cc1cccc2ccnc(N(C(=O)c3ccc(Nc4nccc(N5CCC[C@@H](O)C5)n4)cc3F)[C@@H]3CCCNC3)c12` [Example 623, 2-fluoro-4-((4-((R)-3-hydroxypiperidin-1-yl)pyrimidin-2-yl)amino)-N-(8-methylisoquinolin-1-yl)-N—((R)-piperidin-3-yl)benzamide], the IC50 came out at 30 nM. Consider `Cc1cccc2ccnc(N(C(=O)c3ccc(Nc4nccc(N5CCC[C@H](O)C5)n4)cc3F)[C@@H]3CCCNC3)c12` [Example 624, 2-fluoro-4-((4-((S)-3-hydroxypiperidin-1-yl)pyrimidin-2-yl)amino)-N-(8-methylisoquinolin-1-yl)-N—((R)-piperidin-3-yl)benzamide], for which the IC50 was 180 nM. The figure for `Cc1cccc2ccnc(N(C(=O)c3ccc(Nc4nccc(N5CC[C@H](O)C5)n4)cc3F)[C@@H]3CCCNC3)c12` [Example 625, 2-fluoro-4-((4-((S)-3-hydroxypyrrolidin-1-yl)pyrimidin-2-yl)amino)-N-(8-methylisoquinolin-1-yl)-N—((R)-piperidin-3-yl)benzamide] is 20 nM; for `Cc1ccc(F)c2ccnc(N(C(=O)c3ccc(-c4cnn5cccnc45)cc3F)[C@@H]3CCCNC3)c12` [Example 626, (R)-2-fluoro-N-(5-fluoro-8-methylisoquinolin-1-yl)-N-(piperidin-3-yl)-4-(pyrazolo[1,5-a]pyrimidin-3-yl)benzamide] it is 110 nM. The figure for `Cc1cc(F)cc2ccnc(N(C(=O)c3ccc(-c4cnn5cccnc45)cc3F)[C@@H]3CCCNC3)c12` [Example 627, (R)-2-fluoro-N-(6-fluoro-8-methylisoquinolin-1-yl)-N-(piperidin-3-yl)-4-(pyrazolo[1,5-a]pyrimidin-3-yl)benzamide] is 160 nM; for `Cc1nnc(-c2ccc(C(=O)N(c3nccc4cccc(C)c34)[C@@H]3CCCNC3)c(C)c2)s1` [Example 628, (R)-2-methyl-4-(5-methyl-1,3,4-thiadiazol-2-yl)-N-(8-methylisoquinolin-1-yl)-N-(piperidin-3-yl)benzamide] it is 630 nM.

(Values after patent US20240400555A1 (Initial Therapeutics, Inc., priority 2023, published 2024).)
